Data taken from publication PMC5731250 (Cell, 2017).
Where two headings read alike, the source gives them in different places.

Tests used:
in vivo = conditions: male, C57BL/6J, mouse, ip
male C57BL/6J mice [1] = test: animal or person; format: in vivo; conditions: Mus musculus, ip, 1 h, read-out: ED50 (95% confidence intervals) Tail Flick
male C57BL/6J mice [2] = test: animal or person; format: in vivo; conditions: Mus musculus, ip, 1 h, read-out: ED50 (95% confidence intervals) Hot Plate
MOR = conditions: operational model; ref DeWire et al., 2013; cited from earlier work

| Structure (SMILES) | ED50 (in vivo) [mg/kg] | ED50 (in vivo; ED50 (95% confidence intervals) %O2 Saturation) [mg/kg] | ED50 (male C57BL/6J mice [1]) [mg/kg] | ED50 (male C57BL/6J mice [2]) [mg/kg] | bias factor (G protein signaling over βarrestin pathway) (MOR) |
| --- | --- | --- | --- | --- | --- |
| CN1CC[C@]23c4c5ccc(O)c4O[C@H]2[C@@H](O)C=C[C@H]3[C@H]1C5 [Morphine] | 33 | 79 | 3.8 | 5.9 |  |
| COc1ccsc1CNCC[C@@]1(c2ccccn2)CCOC2(CCCC2)C1 [TRV-130] |  |  |  |  | 3 |
